Assay results: US11116817B2, “Antimicrobial agents and compositions comprising the same” (THE CURATORS OF THE UNIVERSITY OF MISSOURI, priority 2017, dated 2021)
Positions of bridges follow the written chain, without caps; N, C: chain ends. Non-standard residues stand in square brackets, D forms with d. No end group written: not given here. Abu = CC[C@H](N)C(=O)O

Assays:
CHO-K1 cells = assay: Cell cytotoxicity assay (MTT); assay type: cell-based, hamster
Experimental: The Cell Cytotoxicity Assay includes the following procedures. Mouse immature dendritic cell line, JAWSII (ATCC CRL-11904™), was cultured in Alpha minimum essential medium with ribonucleosides, deoxyribonucleosides, 4 mM L-glutamine, 1 mM sodium pyruvate, and 5 ng/ml murine Granulocyte macrophage colony-stimulating factor (GM-CSF) then supplemented with 20% FBS, 100 U/ml penicillin, and 100 μg/ml streptomycin at 37° C. in humidified air with 5% CO2. CCR-2 transfected CHO-K1 cells were cultured in RPMI-1640 supplemented with 10% FBS, 2 mM L-glutamine, 100 units/ml penicillin and streptomycin, and 500 μg/ml G418 at 37° C. in humidified air with 5% CO2. The cytotoxicity of CAMPs (SEQ ID NOs: 1, 2, 3, and 4) to JASWII and CHO-K1 cells was determined using MTT (3-(4,5-dimethylthiazol-2-yl)-2,5-diphenyltetrazolium bromide, Thermo Fisher Scientific) cell proliferation assay. Cells (5×10^3 cells/well) in 96-well microtiter plates were treated with peptides at 64, 128, 256, and 512 μg/ml for 4, 12, 24, and 48 hours at 37° C. After treatment, 20 μl of 12 mM MTT solution was added to each well and the plate was incubated for 4 hours. The medium in each well was replaced with 100 μl of dimethyl sulfoxide (DMSO, Sigma-Aldrich) to dissolve MTT crystals. The plates were read using a spectrophotometer at 540 nm. The viability of treated cells was expressed as the percentage of viability relative to the untreated control. The experiment was performed in triplicate.
Chicken macrophage cell lines MQ-NCSU and HD11 were maintained in RPMI-1640 media supplemented with 10% fetal bovine serum (FBS), 2% chicken serum, 100 U/ml penicillin and 100 μg/ml streptomycin (Sigma-Aldrich) at 37° C. in humidified air with 5% CO2. CHO-K1 cells were cultured in the same media without 2% chicken serum. For CCR2-transfected CHO-K1 cells, medium was supplemented with 500 μg/ml G418 was added (Sigma-Aldrich). Murine immature dendritic cell line JAWSII (ATCC CRL-11904™) was cultured in Alpha minimum essential medium containing 4 mM L-glutamine, 1 mM sodium pyruvate, 5 ng/ml murine Granulocyte macrophage colony-stimulating factor (GM-CSF), 20% FBS, 100 U/ml penicillin and 100 μg/ml streptomycin at 37° C. in humidified air with 5% CO2. The cell cytotoxicity was determined using the MTT (3-(4,5-dimethylthiazol-2-yl)-2,5-diphenyltetrazolium bromide cell proliferation assay according to the manufacturer's instruction (Thermo Fisher Scientific). Briefly, cells (5×10^3 cells/well) were seeded in 96-well tissue culture plates, incubated overnight and treated with the analogues at concentrations of 4, 16, 64 and 256 μg/ml for 4, 12, 24 and 48 hours at 37° C. After treatment, […] 12 mM MTT solution was added to each well. The plate was incubated for 4 hours and read at 540 nm. Viability was expressed as percentage of viable cells relative to the untreated control. The experiments were performed in triplicate.

S. aureus (ATCC 29213) = assay type: cell-based; details: standard conditions, CLSI guidelines
Experimental: (§1) The minimum inhibitory concentrations (MIC) of AvBDs (SEQ ID NOs: 5, 6, 7, 8, 9, 10, 11, 12, and 13) were determined under low salt and standard conditions according to the guidelines of the Clinical and Laboratory Standards Institute (CLSI). […] An equal volume […] of bacterial suspension was added to each well of the plate. The final bacterial concentration in the wells was 5×10^5 CFU/ml. […] To complement MIC-1s assays, the minimum bactericidal concentrations (MBC) were evaluated by sub-culturing the contents of the first two clear wells obtained in the MIC-1s assay onto LB agar plates. All assays were conducted in triplicate. The lowest peptide concentration inhibiting about, at least, or more than 99% of bacterial growth was defined as MBC-1s. The analogues were regarded as bactericidal when the MBC was determined to be no more than four times the MIC.

[1] = system: P. aeruginosa (ATCC 27853); assay type: cell-based; details: low salt condition (5 mM NaCl)
Experimental: as §1

JAWSII cells = assay: Chemotaxis assay (48-well microchemotaxis chamber); assay type: cell-based, mouse; details: for chemotactic index (C.I.): peptide 64 μg/ml
Experimental: (§2) Migration of JAWSII and CCR-2 transfected CHO-K1 cells in response to CAMPs (SEQ ID NOs: 1, 2, 3, and 4) was determined using a 48-well microchemotaxis chamber technique as previously described. Chemotaxis buffer (Minimum Essential Medium containing 0.1% BSA, 100 U/ml penicillin, and 100 μg/ml streptomycin) and bacterial peptide N-Formyl-methionyl-leucyl-phenylalanine (fMLF, Sigma-Aldrich) were included as negative and positive controls, respectively. The results were presented as chemotactic index (C.I.)=number of migrated cells induced by CAMPs (SEQ ID NOs: 1, 2, 3, and 4)/number of migrated cells induced by chemotactic buffer. The assay was repeated five times.
as §2, with “CCR2-CHO-K1” for “CCR-2 transfected CHO-K1”, “the analogues” for “CAMPs (SEQ ID NOs: 1, 2, 3, and 4)”, “For JAWSII cells, chemotaxis” for “Chemotaxis”, “(C.I.). C.I.=number” for “(C.I.)=number”, “the analogues/number” for “CAMPs (SEQ ID NOs: 1, 2, 3, and 4)/number”

mouse red blood cells = assay type: cell-based
Experimental: The Hemolytic Assay includes the following procedures. Briefly, mouse red blood cells (RBCs, Innovative research, Novi, Mich.) were washed three times with phosphate-buffered saline (PBS, pH 7.4), centrifuged at 1000×g for 10 minutes, and re-suspended in PBS to 10% (v/v). The RBCs were treated with CAMPs (SEQ ID NOs: 1, 2, 3, and 4) at various concentrations ranging from 4 to 512 μg/ml (2-fold serial dilutions) at 37° C. for 1 hours. PBS and 0.2% Triton X-100 were used as negative and positive controls, respectively. The supernatant was transferred to a 96-well flat-bottomed polystyrene plate (Thermo Fisher Scientific), and the amount of hemoglobin released into the supernatant was determined by measuring the absorbance with a spectrophotometer at 540 nm. Hemolytic activity was expressed as the percentage of hemolysis and calculated using the following equation: hemolysis (%)=(As−A0)/(A100−A0)×100, where As is the absorbance of the sample, A100 is the absorbance of completely lysed RBCs in 0.2% Triton X-100, and A0 is the absorbance in the complete absence of hemolysis (PBS treatment). The assay was performed in triplicate. Therapeutic index (T.I.) was calculated according to a previously published formula: T.I.=MHC/MICGM. MHC was the minimum hemolytic concentration that caused 5% hemolysis of mouse RBCs. The MICGM was the minimum inhibitory concentration of the peptide concentrations against bacterial growth after the geometric mean was calculated. MICG− was the MICGM for Gram-negative bacteria; MICG+ was the MICGM for Gram-positive bacteria.

[2] = system: Salmonella enteric serovar Typhimurium (ATCC 14028); assay: Antimicrobial activity assay (colony counting), Example Two; assay type: cell-based, S. Typhimurium; details: 2 to 128 μg/ml, 37° C., 2 hours
Experimental: Escherichia coli (ATCC 25922), Pseudomonas aeruginosa (ATCC 27853), Salmonella enteric serovar Typhimurium (ATCC 14028) and Staphylococcus aureus (ATCC 29213) were used to assess the antimicrobial activity of AvBD analogues (SEQ ID NOs: 5, 6, 7, 8, 9, 10, 11, 12, and 13). All bacterial strains were grown on Luria-Bertani (LB) agar plates or Trypticase Soy Agar with 5% Sheep Blood (TSA, Thermo Fisher Scientific) plates at 37° C. Antimicrobial activity was determined by a colony counting assay. In brief, bacteria were suspended in 100-fold diluted Mueller Hinton broth with 5 mM NaCl (minimal growth medium) to obtain a final bacterial concentration of 2×10^5 CFU/ml. Twenty-five microliters of bacterial suspension and 25 μl of AvBD analogue (SEQ ID NOs: 5, 6, 7, 8, 9, 10, 11, 12, and 13) solution were mixed in the wells of a 96-well polypropylene microtiter plate (Nunc™, Thermo Fisher Scientific). The final peptide concentrations were 2, 4, 8, 16, 32, 64 and 128 μg/ml. The minimal growth medium without AvBD peptide (SEQ ID NO: 5, 6, 7, 8, 9, 10, 11, 12, and 13) was included as a negative control. The bacterial-peptide mixtures were incubated at 37° C. for 2 hours, 10-fold serially diluted and plated on LB agar plates. […] Antimicrobial activity was expressed as percent of killing using the following formula: (CPUcontrol−CFUtreated)/CFUcontrol×100%. […]

[3] = system: E. coli, S. Typhimurium, P. aeruginosa and S. aureus; assay: Antimicrobial activity assay (colony counting), Example Two, statements over all four bacteria; assay type: cell-based; details: for impact of NaCl on the killing activity: NaCl 5 to 150 mM; for killing activity compared with parent peptide: 2 to 128 μg/ml, 37° C., 2 hours
Experimental: Escherichia coli (ATCC 25922), Pseudomonas aeruginosa (ATCC 27853), Salmonella enteric serovar Typhimurium (ATCC 14028) and Staphylococcus aureus (ATCC 29213) were used to assess the antimicrobial activity of AvBD analogues (SEQ ID NOs: 5, 6, 7, 8, 9, 10, 11, 12, and 13). All bacterial strains were grown on Luria-Bertani (LB) agar plates or Trypticase Soy Agar with 5% Sheep Blood (TSA, Thermo Fisher Scientific) plates at 37° C. Antimicrobial activity was determined by a colony counting assay. In brief, bacteria were suspended in 100-fold diluted Mueller Hinton broth with 5 mM NaCl (minimal growth medium) to obtain a final bacterial concentration of 2×10^5 CFU/ml. Twenty-five microliters of bacterial suspension and 25 μl of AvBD analogue (SEQ ID NOs: 5, 6, 7, 8, 9, 10, 11, 12, and 13) solution were mixed in the wells of a 96-well polypropylene microtiter plate (Nunc™, Thermo Fisher Scientific). The final peptide concentrations were 2, 4, 8, 16, 32, 64 and 128 μg/ml. The minimal growth medium without AvBD peptide (SEQ ID NO: 5, 6, 7, 8, 9, 10, 11, 12, and 13) was included as a negative control. The bacterial-peptide mixtures were incubated at 37° C. for 2 hours, 10-fold serially diluted and plated on LB agar plates. The numbers of bacterial colonies were enumerated after 16 hours of incubation at 37° C. Antimicrobial activity was expressed as percent of killing using the following formula: (CPUcontrol−CFUtreated)/CFUcontrol×100%. To assess the resistance of AvBD analogues (SEQ ID NOs: 5, 6, 7, 8, 9, 10, 11, 12, and 13) to sodium chloride (NaCl), antimicrobial assays were carried out in the presence of 5 mM, 50 mM, 100 mM or 150 mM NaCl. All assays were performed in triplicate.

[4] = system: CCR-2 transfected CHO-K1 cells; assay: Chemotaxis assay (48-well microchemotaxis chamber); assay type: cell-based, hamster
Experimental: as §2
as §2, with “CCR2-CHO-K1” for “CCR-2 transfected CHO-K1”, “the analogues” for “CAMPs (SEQ ID NOs: 1, 2, 3, and 4)”, “For JAWSII cells, chemotaxis” for “Chemotaxis”, “(C.I.). C.I.=number” for “(C.I.)=number”, “the analogues/number” for “CAMPs (SEQ ID NOs: 1, 2, 3, and 4)/number”

[5] = 64, 128, 256, and 512 μg/ml for 4 to 48 hours

Substance | MBS-Is [1] | T.I. of G+ (therapeutic index, MHC/MICGM) (mouse red blood cells) | T.I. of G− (therapeutic index, MHC/MICGM) (mouse red blood cells) | impact of NaCl on the killing activity [3] | chemotactic activity [4] | other results
GPRSANHKRGLARVGNANPGKYLAKYSFRPVILSSKPLSPTPTKT [AvBD-12A3] | – | – | – | – | – | effect on cell viability (CHO-K1 cells; 4, 16, 64, 256 μg/ml for 4, 12, 24, and 48 hour): did not appear to have any effect on cell viability
GPDSCNHDRGLCRVGNCNPGEYLAKYCFEPVILCCKPLSPTPTKT (disulfide 5-34, 12-27, 17-35) [AvBD-12, reference compound] | >256 µg/mL | – | – | – | – | MIC (S. aureus (ATCC 29213)): >256^ μg/ml; chemotactic index (C.I.) (JAWSII cells): 6.62
Ac-PIHRRIPPRWPRLKRRW-NH2 [CAMP-t2, PIHRRIPPRWPRLKRRW] | – | >13.45 ± 4.48 | >5.45 ± 2.54 | – | – | effect on cell viability (CHO-K1 cells; [5]): did not significantly affect cell viability
GPDS[Abu]NHDRGLCRVGNCNPGEYLAKYCFEPVIL[Abu]CKPLSPTPTKT (disulfide 12-27, 17-35) [AvBD-12A4] | >256 µg/mL | – | – | some impact on killing activity due to salt | – | killing activity compared with AvBD-12 [2]: somewhat reduced
GPHSANHVRGLARVGNANPGLYLAKYAFIPVILAAKPLSPTPTKT [AvBD-12A1] | 256 µg/mL | – | – | some impact from NaCl | mild or little chemotactic activity | killing activity compared with parent peptide [3]: more effective than the parent peptide AvBD-12
GPRSSNHKRGLSRVGNSNPGKYLAKYAFRPVILAAKPLSPTPTKT [AvBD-12A2] | 32 µg/mL | – | – | less adverse impact | mild or little chemotactic activity | killing activity compared with parent peptide [3]: more effective than the parent peptide AvBD-12; chemotactic index (C.I.) (JAWSII cells): 2.37
Ac-LRRLKPLIRPWLRPLRRWWW-NH2 [CAMP-A] | – | 6.54±2.01 | 8.72±2.41 | – | – | effect on cell viability (CHO-K1 cells; concentration at about 128 μg/ml or greater): somewhat decreased
GPDS[Abu]NHDRGL[Abu]RVGNCNPGEYLAKY[Abu]FEPVIL[Abu]CKPLSPTPTKT (disulfide 17-35) [AvBD-12A5] | >256 µg/mL | – | – | some impact on killing activity due to salt | did not appear to exhibit chemotactic activity | chemotactic activity (JAWSII cells): did not appear to exhibit chemotactic activity
Ac-RKFLRRRGEVAHFSQKSLGLYCWWW-NH2 [CAMP-t1] | – | >3.27 ± 2.41 | >4.36 ± 1.21 | – | – | effect on cell viability (CHO-K1 cells; [5]): did not significantly affect cell viability
Ac-RRRWRKRRWWW-NH2 [CAMP-B, RRRWRKRRWWW] | – | > 12.36±4.18 | > 10.90±4.0 | – | – | effect on cell viability (CHO-K1 cells; [5]): did not significantly affect cell viability
GPDS[Abu]NHDRGL[Abu]RVGN[Abu]NPGEYLAKY[Abu]FEPVIL[Abu][Abu]KPLSPTPTKT [AvBD-12A6] | >256 µg/mL | – | – | some impact on killing activity due to salt | did not appear to exhibit chemotactic activity | chemotactic activity (JAWSII cells): did not appear to exhibit chemotactic activity
